Assay results as given in US10822383B2, “Polypeptides capable of producing glucans having alpha-1,2 branches and use of the same” (E I DU PONT DE NEMOURS AND COMPANY, priority 2015, dated 2020).

Assays:
[1] = Alpha-1,2 branching reaction with GTF9905 on products of the GTF8117 reaction; assay type: biochemical; settings: 1.13 U/mL GTF9905, 175 g/L sucrose, 30° C., 76.2 h
Protocol: First, a reaction was performed to prepare glucan that was used in the second part of this Example as a substrate for 1,2-branching enzyme. A reaction mixture (20 mL) comprised of sucrose (488 g/L) and GTF8117 (Example 4, 9.4 U/mL) was adjusted to pH 5.5 with 6.0 N hydrochloric acid and stirred at 47° C. Aliquots were withdrawn at predetermined times and quenched by heating at 90° C. for 20 min. The resulting heat-treated aliquots were centrifuged and the supernatants analyzed by HPLC to determine the concentration of sucrose, glucose, fructose, leucrose, oligosaccharides and polysaccharides. After 6 h, the reaction mixture was heated to 90° C. for 30 minutes, and an aliquot of the heat-treated reaction mixture was centrifuged and the resulting supernatant analyzed for soluble monosaccharides, oligosaccharides and polysaccharides (DP8+) (Table 1). The DP8+ polysaccharides appeared to contain about 100% alpha-1,6 linkages.
A second reaction was then performed to conduct alpha-1,2 branching from the products of the first reaction. […] The resulting heat-treated aliquots were centrifuged and the supernatants analyzed by HPLC to determine the concentration of sucrose, glucose, fructose, leucrose, oligosaccharides and polysaccharides. […]

[2] = Alpha-1,2 branching activity of GTFJ18 / GTFJ18T1 on a glucan backbone (NMR linkage profile of product); assay type: biochemical; settings: for alpha-1,2 linkages in the product of the branching reaction / alpha-1,6 linkages in the product of the branching reaction: 10% (v/v) crude cell extract, 40 g/L sucrose, 22 hours, NMR
Source text: The alpha-1,2 branching activities of each enzyme (GTFJ18 or GTFJ18T1) were individually tested on the glucan product of the glucosyltransferase, GTF5604, which is derived from Streptococcus criceti HS-6 (GENBANK® Acc. No. WP_004226213.1, old gi: 357235604) and disclosed in International Pat. Appl. Publ. No. WO2015/183714 (also referred to therein as SG1018 glucosyltransferase or GtfHS6). GTF5604 (SEQ ID NO:33) has 1338 amino acids with the N-terminal 36 amino acids deduced as its signal peptide by the SignalP 4.0 program. The native nucleotide sequence (positions 1289627-1293643 of GENBANK Acc. No. NZ_AEUV02000002.1) encoding full length GTF5604 (SEQ ID NO:33) including its native signal peptide was synthesized by GenScript and cloned into the SpeI and HindIII sites of the replicative Bacillus expression plasmid pHYT (Takara Bio Inc., Otsu, Japan) under the B. subtilis aprE promoter. The construct was first transformed into E. coli DH10B and selected on ampicillin (100 μg/mL) plates. The confirmed clone, pDCQ918, was then transformed into Bacillus subtilis strain BG6006 (amyE::xylRPxylAcomK-ermC, degUHy32, oppA, ΔspoIIE3501, ΔaprE, ΔnprE, Δepr, ΔispA, Δbpr, Δvpr, ΔwprA, Δmpr-ybfJ, ΔnprB) and selected on tetracycline (12.5 μg/mL) plates, after which the transformed strain, termed as SG1018, was grown in LB containing 10 μg/mL tetracycline first, followed by subculturing into Grant's II medium containing 12.5 μg/mL tetracycline and growth at 37° C. for 2-3 days. The cultures were spun at 15,000×g for 30 min at 4° C. and the supernatant was filtered through 0.22-μm filters. A glucan synthesis reaction was set up containing 10% (v/v) of the SG1018 supernatant with 100 g/L sucrose, 10 mM sodium citrate pH 5 and 1 mM CaCl2. […] The glucan synthesis reaction was subjected to heat inactivation at 95° C. for 30 min.
A branching reaction was set up with 70% (v/v) of the heat-inactivated glucan synthesis reaction. The enzyme being tested for branching activity off of the above glucan product, GTFJ18 or GTFJ18T1, was provided as 10% (v/v) of the above-prepared crude cell extract from EC0059 or EC0059T1, respectively, with 40 g/L sucrose. Each branching reaction was incubated at 37° C. or 30° C. for 22 hours and the products were analyzed by HPLC for sucrose consumption and NMR for linkage profile.
NMR data were acquired on an Agilent DD2 spectrometer (Agilent Technologies, Inc., Santa Clara, Calif.) operating at 500 MHz for ^1H using a 5-mm cryogenic triple-resonance pulsed-field gradient probe. Water suppression was obtained by carefully placing the observe transmitter frequency on resonance for the residual water signal in a “presat” experiment, and then using the first slice of a NOESY experiment with a full phase cycle (multiple of 32) and a mix time of 10 ms. One-dimensional ^1H spectra were acquired with a spectral width of 6410 Hz, acquisition time of 5.1 s, 65536 data points, 4 s pre-saturation and a 90-degree observe pulse. Signal averaging typically involved accumulation of 64 scans. Sample temperature was maintained at 25° C.
Liquid samples were prepared by adding either 50 or 100 μL of completed branching reactions to a 5-mm NMR tube along with 60 μL of D2O containing 12.4 mM 4,4-dimethyl-4-silapentane-1-sulfonic acid sodium salt (DSS) as an internal chemical shift reference, and the balance (450 or 400 μL) of D2O for a total volume of […]. The DSS methyl resonance was set to 0 ppm. […]

Molecule	alpha-1,2 branching activity (in words) [1]	alpha-1,2 linkages in the product of the branching reaction [2] [%]	alpha-1,6 linkages in the product of the branching reaction [2] [%]	alpha-1,2 branching activity (in words) ([2]; compared to full length GTFJ18)
GTF9905: Fructobacillus tropaeoli glucosyltransferase, SEQ ID NO:4, mature form positions 36-1672	significant alpha-1,2 branching activity	–	–	–
GTFJ18: full length glucosyltransferase from Leuconostoc mesenteroides J18, SEQ ID NO:1 (identical to SEQ ID NO:13)	–	0.6	97	–
GTFJ18T1: N-terminal-truncated form of GTFJ18 (first 1664 residues removed), SEQ ID NO:27 (protein, Leuconostoc mesenteroides) VKGDKRTIDGVLYTFDKESGERKGLDSISVLPTNGQYTTDKAQNWYYQVDGENVKGLYTNNDGQLRYFDLTTGVQTKGNFVTIGNDTYYFTKEQGDGQIVSEVVSGHYGTVQLSDNSSAWVYRGANDQILKGLQNINGRLQYFDLTTGAQLKGGAANYDGNLYYFESSDGNLVSKIQQSYSTGNYVTDGDKVTYADEQNNQVTGLALIDDQLQYFDPSDGRQVKNEQVIVDGVTYYFDKNGNGQYLFTNTATMSTNEFAKHSAAYSNDSSSFKNTIDGFLTADTWYRPKDILENGQTWVVSSTNDVRPLITVWWLNKDVQVNYSNFMKQNGLLDTSSQFNLQSDQYDLNVAAQKVQVAIEKRISKEKSTDWLKDLLFEAHEDTPSFVKQQFIWNKDSEYQGQGDAWFQGGYLKYGNNELTPTTNSDYRESGNTLDFLLANDVDNSNPAVQAENLNWLHYLMNFGTITANDDDANFDSIRIDAVDFIDNDAIQRTYDYMRDAYKVDASEDNANKHISLVEAGLDAGTSTIKSDALVESNFREAATLSLANQSGENSSLTNMLQDIDGGQIIADHANNATENESTPNYSIIHAHDKGIQEKVGAAITDVTGADWTNFTDDQLKEGLAAYYQDQRSTNKKYNIYNLPSIYALMLTNKDTVPRVYYGDMYQDDGQYMEKQSIYYDAIVSLMNTRKSYVSGGQTMDVDEHGLLKSVRFGKDAMTASDLGTNETRTEGVGVLVGNDSSLKLNDSDTVTLEMGAAHKNQKYRAALLTTSDGIVTYDADNDAPTIWTDDRGTLTFSNKEIAGQDYTSVQGFANSQVSGYLAVWVPVGASDDQDVRTAALTDANLDDKVLHSNAALDSNLIYEGFSNFQPKATTNDELTNVVIAKNANLFEKWGITSFEMAPQYRSSGDHTFLDSTIDNGYAFTDRYDLGFETPTKYGTDKDLRTAIKALHQSNMQVMADVVDNQVYNLSGQEVVSASRAGVYGNDVSTGFGTQLYAVNSVGGGKYQAQYGGEYLNELKQQYPDLFEAKTYDYWVKNYSNDGSDPYYTLSQNTRKDMPSSEVIKQWSAKYMNGTNVLGNGMGYVLKDWNTGEYFKIGEKNADFITN	–	18	82	much higher alpha-1,2 branching activity
